Laboratory results reported in patent US20220168389A1, “METHODS OF MAKING CHIMERIC ANTIGEN RECEPTOR-EXPRESSING CELLS” (priority 2019, published 2022).

Tested on: freshly isolated, quiescent human T cells
Experiment: Lentiviral transduction of freshly isolated quiescent (non-activated) T cells, flow cytometry
Type: cell-based
Method: Peripheral blood leukocytes from healthy donors were obtained from the Human Immunology Core. Informed consent was obtained from all participants prior to collection. All methods and experimental procedures were approved by the University of Pennsylvania Institutional Review Board. T cells were purified at the University's Human Immunology Core by negative selection using the RosetteSep T cell enrichment Cocktail. T cells were serum starved in RPMI media containing 10 mM HEPES, 2 mM L-glutamine 100 U/mL penicillin G and 100 μg/mL streptomycin for 2-6 hours and then resuspended at a concentration of 10^7 T cells/mL in X-VIVO 15 (Cambrex, Walkersville, Md.) supplemented with 5% normal human AB serum (Valley Biomedical, Winchester, Va.), 2 mM L-glutamine (Cambrex), 20 mM HEPES (Cambrex), IL7 and IL15 (10 ng/mL, Miltenyi Biotec), and deoxynucleosides (50 μM, Sigma). As the medium was switched to X-VIVO 15, T cells were simultaneously transduced with CD19-BBζ CAR or iRFP lentiviral supernatants for 24 hours.
1×10^6 cells were stained for cell surface markers to analyze T-cell differentiation status. […] Cells were washed with phosphate-buffered saline (PBS) and stained for viability using LIVE/DEAD Fixable Violet (Molecular Probes) for 15 minutes, washed once, and resuspended in fluorescence activated cell sorting (FACS) buffer containing PBS, 1% BSA, and 5 mM EDTA. […] Positively stained cells were differentiated from background using fluorescence-minus-one (FMO) controls. […]
For activated T cells, cells were resuspended at 10^6 T cells/mL in X-VIVO 15 (Cambrex, Walkersville, Md.) supplemented with 5% human AB serum (Valley Biomedical, Winchester, Va.), 2 mM L-glutamine (Cambrex), 20 mM HEPES (Cambrex), IL-7 and IL-15 (10 ng/mL, Miltenyi Biotec). […] Cell volume was also measured with a Multisizer III particle counter (Beckman-Coulter) every other day. […]
T cell differentiation was assessed using the following antibodies: anti-CCR7-FITC (BD Pharmingen); anti-CD45RO-PE, anti-CD8-H7APC (BD Biosciences); anti-CD4-BV510, anti-CD3-BV605, anti-CD14-Pacific Blue (PB), anti-CD19-PB (BioLegend). […]

Substance: deoxynucleosides [dNs]
- increase in transduction efficiency of quiescent T cells (50 μM dNs vs cells in medium containing IL-7 and IL-15, iRFP vector (FIG. 2B)): 3 fold
- increase in lentiviral transduction of non-activated T cells (50 μM dNs, normalized to complete media without dNs, iRFP vector (FIG. 6B)): ~2 fold
- transduction efficiency in quiescent T cells (serum starvation combined with high concentrations of dNs (FIG. 2B)): exceeding 50%
